In patent publication US20260217768A1, “NANOPARTICLE-NHE3 PEPTIDE TO TREAT DIARRHEA” (The Johns Hopkins University, priority 2023, published 2026):

Legend:
NHE3 [1] = experiment: Effect of N-terminal truncations of N3SP-1 on NHE3 activity in human enteroids (BCECF-fluorometry); type: cell-based; details: human duodenal enteroids, Hill equation
Procedure: (§1) NHE3 activity in PS120, Caco-2/BBe cells and human jejunal enteroids was determined fluorometrically (Photon Technologies Incorporated) using the intracellular pH sensitive dye BCECF, as reported (Levine et al., 1993; Sarker et al., 2008; Foulke-Abel et al., 2020). PS120/HA3-NHE3 cells were seeded on glass cover slips and studied at 70-80% confluency. Caco-2/BBe/HA3-NHE3 cells were grown to confluency on Transwell inserts (polyester, 0.4-μm pore size) and studied approximately 14-16 days pod. Human duodenal enteroid monolayers on Transwell inserts were differentiated for 5 days in the absence of Wnt3a, R-spondin, and noggin as described (Noel et al., 2017; Staab et al., 2020).
(§2) Rates of Na^+/H^+ exchange were determined as Na^+-dependent alkalinization in the presence of 50-μM HOE-694 (to inhibit all other plasma membrane NHE isoforms) in HCO3-free solutions, with internal calibration using the nigericin/K+ method, as previously described (Sarker et al., 2008; Foulke-Abel et al., 2020). Kinetic analysis was used for PS120 cell studies (expressed as Vmax) and initial rates (ΔpH/min) for Caco-2/BBe cells, mouse intestine in vitro, and human enteroids. For in vitro mouse jejunal transport studies, NHE3 activity (in the presence of 50-μM HOE-694) was measured using SNARF-4F at 37° C. in a perfusion chamber using a two-photon microscope (Olympus FV1000) and 25× objective, as described (Murtazina et al., 2011).
Concentration dependent effects on NHE3 basal activity was determined using BCECF-fluorometry. Kinetic analysis was determined of extent of stimulation of basal NHE3 activity; analysis was by use of the Hill equation.
Given the ability of N3SP-1Δ7 to prevent CTx-induced fluid secretion in vivo (FIG. 3E) and to stimulate basal NHE3 activity and prevent cAMP inhibition in human enteroids (FIG. 4C), further studies were carried out with human enteroids to determine the shortest N3SP-1-related peptide that would stimulate human NHE3. A series of N3SP-1 N-terminal truncations was synthesized and concentration-dependent stimulation of NHE3 activity determined using human jejunal enteroids.

mouse jejunum = details: in vivo
NHE3 [2] = experiment: NHE3 activity in differentiated human enteroid monolayers after nanoparticle delivery of peptide; type: cell-based
Procedure: as §1, §2
PBAE polymer and peptide were separately dissolved in pH 7.4 150-mM PBS and combined at a 1:1 volume ratio. Final concentrations of the components were 6-ng/μL peptide and 180-ng/μL polymer (30:1 polymer: peptide weight ratio). Polymer and peptide nanoparticles were allowed to self-assemble at room temperature for 10 minutes. For characterization, nanoparticles were diluted 1:5 in PBS. Hydrodynamic diameter and zeta potential were measured using a Malvern Zetasizer Pro (Malvern Panalytical, Malvern, UK). Stability was assessed by incubating nanoparticles at RT up to 45 minutes then measuring hydrodynamic diameter over 45 minutes. […]

mouse ileal loops [3] = experiment: Basal fluid absorption in closed mouse ileal loops, nanoparticle-conjugated peptides, with or without Tenapanor; type: in vivo; details: for residual fluid / fluid absorption in closed ileal loops compared to CP2: nanoparticle conjugated peptide 400 nM for 4 h, then 150-μL PBS for 30 min
Procedure: (§3) All in vivo studies were performed on 8-12 week old C57B1/6N mice anesthetized with isofluorane and kept at 37° C. via heating lamps and rectal thermal probes.
(§4) Effect on basal fluid transport and effect of Tenapanor. Mice operated on as above had 3-4 cm closed ileal loops inoculated with 150-μL PBS containing 400-nM nanoparticle-CP-2 or -N3SP-1Δ7. After 4 h, the loops were drained and inoculated with 150-μL PBS. 30 min later, the animals were sacrificed and loop weight/length determined. In parallel studies, Tenapanor (10 μM) was present in both incubation periods. Similar to the BODIPY-conjugated peptide studies, the effects of nanoparticle-CP-2 or N3SP-1Δ7 (4 μM) compared to PBS alone were determined on net fluid secretion produced by inoculation of 0.1-μg CTx. The nanoparticle-peptides plus 0.1-μg CTx in 150-μL PBS were inoculated in 3-4 cm long closed ileal loops. Additional controls included loops exposed only to 150-μL PBS and those only exposed to the CTx/PBS. 4 h later, the animals were sacrificed and loop weight/cm length was determined.

mouse ileal loops [4] = experiment: CTx-induced fluid secretion in closed mouse ileal loops, nanoparticle-conjugated peptides; type: in vivo
Procedure: as §3, §4

[5] = Nanoparticle characterization: hydrodynamic diameter, zeta potential, stability; type: physicochemical; details: CR5 with peptide, 30:1 polymer:peptide weight ratio
Procedure: PBAE polymer and peptide were separately dissolved in pH 7.4 150-mM PBS and combined at a 1:1 volume ratio. Final concentrations of the components were 6-ng/μL peptide and 180-ng/μL polymer (30:1 polymer: peptide weight ratio). Polymer and peptide nanoparticles were allowed to self-assemble at room temperature for 10 minutes. For characterization, nanoparticles were diluted 1:5 in PBS. Hydrodynamic diameter and zeta potential were measured using a Malvern Zetasizer Pro (Malvern Panalytical, Malvern, UK). Stability was assessed by incubating nanoparticles at RT up to 45 minutes then measuring hydrodynamic diameter over 45 minutes. Nanoparticles were made immediately prior to each experiment.

[6] = tested on: differentiated human enteroid monolayers; experiment: Nanoparticle-peptide uptake in human enteroid monolayers (confocal microscopy); type: cell-based; details: apical addition, 2 μM, 4 h uptake, differentiated human enteroids
Procedure: […] After varying times from 15 min to 4 hours, enteroids were washed three times with PBS to remove extracellular nanoparticles and wells were replenished with fresh serum-containing media.
At varying times after nanoparticle addition up to overnight, enteroids were serum-starved for 2 hours then fixed in 4% paraformaldehyde for 30 minutes. After washing with PBS, formaldehyde was neutralized with 20-mM glycine. Enteroids were then permeabilized in 0.1% saponin, 1% BSA for 30 minutes. Fixed and permeabilized enteroids were stained for biotinylated peptide using streptavidin conjugated AlexaFluor 488 (1:100) and Hoechst stain (1:200). Enteroids were thoroughly washed with PBS and mounted onto microscope slides. Uptake was visualized using an Olympus FV3000RS confocal microscope and 40× objective (Olympus, Tokyo, Japan).

N3SP-1 lacking first seven N-terminal amino acids: RPSTVEASVSYLLRESASAVCLDMQSLEQRR [Peptide N3SP-1Δ7]
Stimulation of NHE3 Activity (NHE3 [1]; basal NHE3 activity, BCECF-fluorometry): YES (39%)
EC50 (NHE3 [1]; stimulation of basal NHE3 activity): 156 nM
effect on CTx-stimulated net fluid secretion (loop weight/cm) (mouse jejunum): did not alter the efficacy
NHE3 activity after FSK, % of same peptide without FSK (NHE3 [2]; nanoparticles (250 nM) 18 h, FSK exposure, n=4): 88.0%
increase of basal NHE3 activity compared to CP-2 (NHE3 [2]; nanoparticles added apically (250 nM) for 18 h, n=4, p=0.043): 36.0%
residual fluid / fluid absorption in closed ileal loops compared to CP2 (mouse ileal loops [3]): increased fluid absorption
residual fluid / fluid absorption in closed ileal loops compared to CP2 (mouse ileal loops [3]; listed as N3SP-147): significantly less amount of residual fluid
residual fluid in presence of Tenapanor, CP2 vs N3SP-1Δ7 (mouse ileal loops [3]; nanoparticle conjugated peptide 400 nM, Tenapanor (10 μM) in both incubation periods): no difference in residual fluid
reduction of cholera toxin induced secretion (mouse ileal loops [4]; mouse, in vivo): approximately 42%
effect on CTx-induced fluid in ileal loops (loop weight/length) (mouse ileal loops [4]; nanoparticle-peptide 4 μM with 0.1-μg CTx, 4 hours): significantly less fluid
surface zeta potential (electrophoretic light scattering) [5]: 22.4±1.2 mV
nanoparticle diameter (DLS) ([5]; aqueous): 385±30 nm
uptake and location in enteroid monolayers [6]: lack of uptake
